According to the NIST ThermoML archive (doi:10.1021/acs.jced.5b00303):

Conditions: Pendant drop shape

Cn1cc[n+](C)c1.N#C[B-](C#N)(C#N)C#N [1,3-dimethylimidazolium tetracyanoborate]
Conditions | surface tension liquid-gas [mN/m]
283.19 K | 35.44
293.24 K | 34.74
303.28 K | 33.67
313.26 K | 33.07
323.17 K | 32.05
333.17 K | 31.37
343.13 K | 30.6
353.24 K | 29.98

CCCCn1cc[n+](C)c1.N#C[B-](C#N)(C#N)C#N [1-butyl-3-methyl-1H-imidazolium tetracyanoborate]
Conditions | surface tension liquid-gas [mN/m]
283.23 K | 45.23
293.23 K | 44.64
303.3 K | 43.65
313.24 K | 42.62
323.24 K | 41.71
333.2 K | 40.81
343.22 K | 39.87
353.3 K | 39.08

CCn1cc[n+](C)c1.N#C[C-](C#N)C#N [1-ethyl-3-methyl-1H-imidazolium tricyanomethanide]
Conditions | surface tension liquid-gas [mN/m]
283.18 K | 51.1
293.25 K | 50.4
303.24 K | 49.39
313.1 K | 48.62
323.08 K | 47.83
333.17 K | 47.19
343.09 K | 46.55
353.36 K | 44.68

CCn1cc[n+](C)c1.N#C[B-](C#N)(C#N)C#N [1-ethyl-3-methylimidazolium tetracyanoborate]
Conditions | surface tension liquid-gas [mN/m]
283.1 K | 49.66
293.26 K | 48.72
303.35 K | 47.57
313.29 K | 46.45
323.2 K | 45.67
333.09 K | 44.87
343.12 K | 44.04
353.45 K | 43.4

CCCCCCn1cc[n+](C)c1.N#C[B-](C#N)(C#N)C#N [1-hexyl-3-methylimidazolium tetracyanoborate]
Conditions | surface tension liquid-gas [mN/m]
283.27 K | 41.99
293.29 K | 41.32
303.27 K | 40.4
313.29 K | 39.39
323.26 K | 38.6
333.2 K | 37.61
343.18 K | 37
353.25 K | 35.86

CCCCCCCCn1cc[n+](C)c1.N#C[B-](C#N)(C#N)C#N [1-methyl-3-octylimidazolium tetracyanoborate]
Conditions | surface tension liquid-gas [mN/m]
283.23 K | 38.64
293.32 K | 38.01
303.3 K | 36.81
313.27 K | 36.18
323.23 K | 35.19
333.18 K | 34.15
343.21 K | 33.44
353.28 K | 32.41

CCCCCCCCn1cc[n+](C)c1.N#CC(=C=[N-])C#N [1-methyl-3-octylimidazolium tricyanomethanide]
Conditions | surface tension liquid-gas [mN/m]
283.28 K | 40.07
293.21 K | 39.03
303.32 K | 38.38
313.21 K | 37.65
323.12 K | 36.89
333.1 K | 36.09
343.16 K | 35.31
353.03 K | 34.89

CCCCCC[n+]1ccn(C)c1.N#C[C-](C#N)C#N [3-hexyl-1-methylimidazolium tricyanomethanide]
Conditions | surface tension liquid-gas [mN/m]
283.23 K | 44.44
293.35 K | 43.55
303.33 K | 42.88
313.26 K | 42.09
323.25 K | 41.49
333.18 K | 40.8
343.11 K | 39.91
353.53 K | 39.07
